According to PubChem BioAssay (NCI):
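The compound was tested at five concentrations on cells cultured in 96-well plates, with a 48-hour exposure period. TGI: concentration producing complete growth inhibition.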

Columns and labels:
Assay in all cases: NCI-60 cell line screen, 48 h
OVCAR-3 ovarian = system: OVCAR-3 ovarian
CAKI-1 renal = system: CAKI-1 renal
LXFL 529 NSCLC = system: LXFL 529 NSCLC
M14 melanoma = system: M14 melanoma
KM20L2 colon = system: KM20L2 colon
OVCAR-8 ovarian = system: OVCAR-8 ovarian
COLO 205 colon = system: COLO 205 colon
SF-539 CNS = system: SF-539 CNS
IGROV1 ovarian = system: IGROV1 ovarian
SNB-78 CNS = system: SNB-78 CNS
UACC-257 melanoma = system: UACC-257 melanoma
HT29 colon = system: HT29 colon
TK-10 renal = system: TK-10 renal
HOP-62 NSCLC = system: HOP-62 NSCLC
HCT-15 colon = system: HCT-15 colon
UACC-62 melanoma = system: UACC-62 melanoma
SK-OV-3 ovarian = system: SK-OV-3 ovarian
LOX IMVI melanoma = system: LOX IMVI melanoma
SW-620 colon = system: SW-620 colon
DMS 273 small cell lung = system: DMS 273 small cell lung
786-0 renal = system: 786-0 renal
SK-MEL-28 melanoma = system: SK-MEL-28 melanoma
SNB-19 CNS = system: SNB-19 CNS
A498 renal = system: A498 renal
SF-295 CNS = system: SF-295 CNS
EKVX NSCLC = system: EKVX NSCLC
NCI-H23 lung = system: NCI-H23 lung
A549 NSCLC = system: A549 NSCLC
HCT-116 colon = system: HCT-116 colon
DLD-1 colon = system: DLD-1 colon
SN12C renal = system: SN12C renal
HOP-92 NSCLC = system: HOP-92 NSCLC
RXF 393 renal = system: RXF 393 renal
XF 498 CNS = system: XF 498 CNS
HOP-18 NSCLC = system: HOP-18 NSCLC
U251 CNS = system: U251 CNS
NCI-H460 lung = system: NCI-H460 lung
OVCAR-4 ovarian = system: OVCAR-4 ovarian
SNB-75 CNS = system: SNB-75 CNS
DMS 114 small cell lung = system: DMS 114 small cell lung
ACHN renal = system: ACHN renal
SK-MEL-5 melanoma = system: SK-MEL-5 melanoma
HCC-2998 colon = system: HCC-2998 colon
MALME-3M melanoma = system: MALME-3M melanoma
KM12 colon = system: KM12 colon
OVCAR-5 ovarian = system: OVCAR-5 ovarian
HL-60(TB) leukemia = system: HL-60(TB) leukemia
SF-268 CNS = system: SF-268 CNS
NCI-H522 lung = system: NCI-H522 lung
SK-MEL-2 melanoma = system: SK-MEL-2 melanoma
CCRF-CEM leukemia = system: CCRF-CEM leukemia
RPMI-8226 leukemia = system: RPMI-8226 leukemia
K-562 leukemia = system: K-562 leukemia
MOLT-4 leukemia = system: MOLT-4 leukemia
M19-MEL melanoma = system: M19-MEL melanoma
UO-31 renal = system: UO-31 renal
NCI-H226 lung = system: NCI-H226 lung
RXF-631 renal = system: RXF-631 renal

Measured: TGI

COc1ccc2c3c(c(C(=O)O)oc13)C(CCC(=O)O)CC2 (configuration not stated)
not listed: MALME-3M melanoma | KM12 colon | OVCAR-5 ovarian | HL-60(TB) leukemia | SF-268 CNS | NCI-H522 lung | SK-MEL-2 melanoma | CCRF-CEM leukemia | RPMI-8226 leukemia | K-562 leukemia | MOLT-4 leukemia | M19-MEL melanoma | UO-31 renal | NCI-H226 lung | RXF-631 renal
> 100 µM: all other assays above

CCOC(=O)COc1cccc2occc(=O)c12
not listed: RXF 393 renal | HOP-18 NSCLC | SNB-75 CNS | NCI-H226 lung | RXF-631 renal
> 100 µM: all other assays above

O=C(CCC(=O)C1Cc2ccccc2C1=O)Nc1cccc(C(F)(F)F)c1 (configuration not stated)
not listed: SK-MEL-28 melanoma | A498 renal | XF 498 CNS | SNB-75 CNS | DMS 114 small cell lung | NCI-H522 lung | RPMI-8226 leukemia
> 100 µM: all other assays above
